In PubChem BioAssay AID328 (DTP/NCI, 2004):
Values joined by “and” are separate entries in the source; they are usually repeats but may differ in a detail not shown here. Equal values may be shown once. Toxic doses and inconclusive results are not listed. How the source made its calls: active means survival T/C of 150% or more; inactive means T/C below 125% in these data.

Tested on: BDF1 mice, P388 leukemia ip, median survival T/C
Assay: NCI In Vivo Anticancer Drug Screen. Data for tumor model P388 Leukemia (intraperitoneal) in B6D2F1 (BDF1) mice
Conditions: endpoint: median survival time, higher = longer survival
How it was run: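 Antitumour effect was judged in vivo: survival in drug-treated mice, normalised to that of vehicle-dosed controls, gives the reported T/C.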

[1] = dose: 25.0 mg/kg/injection, schedule: Q01DX009 (ip), vehicle: saline
[2] = dose: 100.0 mg/kg/injection, schedule: Q04DX003 (ip), vehicle: saline with Tween-80
[3] = dose: 400.0 mg/kg/injection, schedule: Q04DX003 (ip), vehicle: saline with Tween-80
[4] = dose: 50.0 mg/kg/injection, schedule: Q01DX009 (ip), vehicle: Klucel (hydroxypropylcellulose) (HPC)
[5] = dose: 100.0 mg/kg/injection, schedule: Q01DX009 (ip), vehicle: saline with Tween-80
[6] = dose: 200.0 mg/kg/injection, schedule: Q01DX009 (ip), vehicle: saline with Tween-80
[7] = dose: 400.0 mg/kg/injection, schedule: Q01DX009 (ip), vehicle: saline with Tween-80
[8] = dose: 50.0 mg/kg/injection, schedule: Q01DX009 (ip), vehicle: saline with Tween-80
[9] = dose: 50.0 mg/kg/injection, schedule: Q04DX003 (ip), vehicle: saline
[10] = dose: 6.25 mg/kg/injection, schedule: Q01DX009 (ip), vehicle: Klucel (hydroxypropylcellulose) (HPC)
[11] = dose: 12.5 mg/kg/injection, schedule: Q01DX009 (ip), vehicle: Klucel (hydroxypropylcellulose) (HPC)
[12] = dose: 25.0 mg/kg/injection, schedule: Q01DX009 (ip), vehicle: Klucel (hydroxypropylcellulose) (HPC)

Measured: T/C

c1cc[n+]2c(c1)-c1cccc[n+]1CC2
inactive: dose: 3.13 mg/kg/injection, schedule: Q04DX003 (ip), vehicle: saline 100 % of control | dose: 6.25 mg/kg/injection, schedule: Q04DX003 (ip), vehicle: saline 95 % of control | dose: 12.5 mg/kg/injection, schedule: Q04DX003 (ip), vehicle: saline 100 % of control

NC1=NCC(CSc2ccc(Cl)c(Cl)c2)O1 (stereo not drawn)
inactive: dose: 50.0 mg/kg/injection, schedule: Q04DX002 (ip), vehicle: saline + Tween-80 + alcohol 95 % of control | dose: 100.0 mg/kg/injection, schedule: Q04DX002 (ip), vehicle: saline + Tween-80 + alcohol 101 % of control | dose: 200.0 mg/kg/injection, schedule: Q04DX002 (ip), vehicle: saline + Tween-80 + alcohol 95 % of control

C#CCOCC(CCl)OC(=O)Nc1ccccc1 (stereo not drawn)
inactive: [1] 95 % of control | dose: 50.0 mg/kg/injection, schedule: Q01DX009 (ip), vehicle: saline 104 % of control | dose: 50.0 mg/kg/injection, schedule: Q04DX003 (ip), vehicle: saline with Tween-80 87 % of control | dose: 100.0 mg/kg/injection, schedule: Q01DX009 (ip), vehicle: saline 104 % of control | [2] 95 % of control | dose: 200.0 mg/kg/injection, schedule: Q01DX009 (ip), vehicle: saline 109 % of control | [3] 100 % of control

Cc1cc(C)c(-c2c(C)cc(C)c(C(=O)c3ccc([N+](=O)[O-])cc3)c2C)c(C)c1C(=O)c1ccc([N+](=O)[O-])cc1
inactive: dose: 3.0 mg/kg/injection, schedule: Q01DX009 (ip), vehicle: Klucel (hydroxypropylcellulose) (HPC) 100 % of control | dose: 6.0 mg/kg/injection, schedule: Q01DX009 (ip), vehicle: Klucel (hydroxypropylcellulose) (HPC) 100 % of control | dose: 12.0 mg/kg/injection, schedule: Q01DX009 (ip), vehicle: Klucel (hydroxypropylcellulose) (HPC) 95 % of control | [4] 92 % of control | dose: 100.0 mg/kg/injection, schedule: Q04DX003 (ip), vehicle: Klucel (hydroxypropylcellulose) (HPC) 95 % of control | dose: 200.0 mg/kg/injection, schedule: Q04DX003 (ip), vehicle: Klucel (hydroxypropylcellulose) (HPC) 100 % of control | dose: 400.0 mg/kg/injection, schedule: Q04DX003 (ip), vehicle: Klucel (hydroxypropylcellulose) (HPC) 100 % of control

C=C1C(=O)O[C@@H]2CC(CO)=C([C@@H](C)CCCO)[C@@H](OC(=O)/C(C)=C\C)[C@H]12
inactive: dose: 2.0 mg/kg/injection, schedule: Q01DX009 (ip), vehicle: saline + alcohol 123 % of control | dose: 4.0 mg/kg/injection, schedule: Q01DX009 (ip), vehicle: saline + alcohol 104 % of control | dose: 8.0 mg/kg/injection, schedule: Q01DX009 (ip), vehicle: saline + alcohol 123 % of control | dose: 16.0 mg/kg/injection, schedule: Q01DX009 (ip), vehicle: saline + alcohol 114 % of control

CNC(CNC(CO)CC(C)C)Cc1ccc(OCc2ccccc2)cc1 (stereo not drawn)
inactive: dose: 12.5 mg/kg/injection, schedule: Q01DX009 (ip), vehicle: saline 104 % of control | [1] 100 % of control

Cc1ccc2oc(-c3ccccc3)c(O)c(=O)c2c1
inactive: [5] 95 % of control | [6] 100 % of control | [7] 90 % of control

CCCCCCC(=O)/C=C/c1ccc(Cl)cc1
inactive: [5] 90 % of control | [6] 91 % of control | [7] 100 % of control

C=C(C)C12OC3(c4ccccc4)OC1C1C4OC4(CO)C(O)C4(O)C(=O)C(C)=CC4C1(O3)C(C)C2O (stereo not drawn)
inactive: dose: 25.0 micrograms/kg/injection, schedule: Q01DX009 (ip), vehicle: saline + alcohol 95 % of control and 102 % of control | dose: 50.0 micrograms/kg/injection, schedule: Q01DX009 (ip), vehicle: saline + alcohol 93 % of control | dose: 100.0 micrograms/kg/injection, schedule: Q01DX009 (ip), vehicle: saline + alcohol 107 % of control | dose: 200.0 micrograms/kg/injection, schedule: Q01DX009 (ip), vehicle: saline + alcohol 103 % of control and 110 % of control | dose: 800.0 micrograms/kg/injection, schedule: Q01DX009 (ip), vehicle: saline + alcohol 116 % of control | dose: 1600.0 micrograms/kg/injection, schedule: Q01DX009 (ip), vehicle: saline + alcohol 106 % of control

O=[N+]([O-])c1ccc(N2CCCCCC2)c2c1no[n+]2[O-]
inactive: dose: 15.0 mg/kg/injection, schedule: Q01DX009 (ip), vehicle: saline with Tween-80 90 % of control | dose: 30.0 mg/kg/injection, schedule: Q01DX009 (ip), vehicle: saline with Tween-80 95 % of control | dose: 60.0 mg/kg/injection, schedule: Q01DX009 (ip), vehicle: saline with Tween-80 95 % of control

NC(=S)NCc1ccccc1C(O)c1ccccc1 (stereo not drawn)
inactive: [8] 94 % of control | [5] 91 % of control | [6] 101 % of control

COC1C(OC(=O)/C=C/C=C/C=C/C=C\C(=O)O)CCC2(CO2)C1C1(C)OC1CC=C(C)C (stereo not drawn)
inactive: [9] 110 % of control | dose: 100.0 mg/kg/injection, schedule: Q04DX003 (ip), vehicle: saline 105 % of control | dose: 200.0 mg/kg/injection, schedule: Q04DX003 (ip), vehicle: saline 110 % of control

C=CCN1C=CC=C/C1=C\C=C(/C#N)C(=O)OCC
inactive: [8] 99 % of control | [5] 90 % of control | [6] 103 % of control

Cc1cc(N(CCO)CCO)c2ccc3cc4ccccc4cc3c2n1
inactive: [8] 119 % of control | [5] 116 % of control | [6] 94 % of control

Cc1cc(=O)[nH]c2c1CCCCC2
inactive: dose: 50.0 mg/kg/injection, schedule: Q01DX001 (ip), vehicle: saline sonified 104 % of control | dose: 100.0 mg/kg/injection, schedule: Q01DX001 (ip), vehicle: saline sonified 95 % of control

CC(C)OC(=O)Nc1ccccc1Cl
inactive: [9] 95 % of control

CCOn1nnc2cc(Cl)ccc21
inactive: [2] 113 % of control | dose: 200.0 mg/kg/injection, schedule: Q04DX003 (ip), vehicle: saline with Tween-80 113 % of control | [3] 106 % of control

Cc1ccc(S(=O)C(C)C(Cl)c2ccccc2)cc1 (stereo not drawn)
inactive: [8] 98 % of control | [5] 106 % of control | [6] 100 % of control

CC(C)=CCC/C(C)=C/CNCCc1c[nH]c2ccccc12
inactive: dose: 3.12 mg/kg/injection, schedule: Q01DX009 (ip), vehicle: Klucel (hydroxypropylcellulose) (HPC) 117 % of control | [10] 104 % of control and 117 % of control | [11] 117 % of control | [12] 120 % of control | [4] 120 % of control

CC(=O)OCC(=O)[C@@]1(O)CC[C@H]2[C@@H]3CCC4=CC(=O)[C@H](C)C[C@]4(C)[C@@]3(F)[C@@H](O)C[C@@]21C
inactive: [10] 109 % of control | [11] 109 % of control | [12] 90 % of control | dose: 254.0 mg/kg/injection, schedule: Q01DX001 (ip), vehicle: Klucel (hydroxypropylcellulose) (HPC) 100 % of control | dose: 385.0 mg/kg/injection, schedule: Q01DX001 (ip), vehicle: Klucel (hydroxypropylcellulose) (HPC) 91 % of control

Nc1n[nH]c(=S)n1-c1ccccc1
inactive: dose: 100.0 mg/kg/injection, schedule: Q01DX001 (ip), vehicle: Klucel (hydroxypropylcellulose) (HPC) 104 % of control | dose: 100.0 mg/kg/injection, schedule: Q01DX009 (ip), vehicle: Klucel (hydroxypropylcellulose) (HPC) 95 % of control | dose: 200.0 mg/kg/injection, schedule: Q01DX001 (ip), vehicle: Klucel (hydroxypropylcellulose) (HPC) 95 % of control | dose: 200.0 mg/kg/injection, schedule: Q01DX009 (ip), vehicle: Klucel (hydroxypropylcellulose) (HPC) 91 % of control | dose: 400.0 mg/kg/injection, schedule: Q01DX001 (ip), vehicle: Klucel (hydroxypropylcellulose) (HPC) 90 % of control | dose: 400.0 mg/kg/injection, schedule: Q01DX009 (ip), vehicle: Klucel (hydroxypropylcellulose) (HPC) 104 % of control
